Experimental data: patent US12084462B2, “Spiro bicyclic inhibitors of menin-MLL interaction” (Janssen Pharmaceutica NV, priority 2016, dated 2024)
Where “and” joins values, the source holds several entries; their conditions need not be identical. Equal values may be shown once. Read-outs that look alike come from different tables or passages of the source.

Assays:
K562 = experiment: Proliferation assay (spheroid assay) K562, control cell line; type: cell-based; conditions: Homo sapiens
Method: (§1) The anti-proliferative effect of menin/MLL protein/protein interaction inhibitor test compounds was assessed in human leukemia cell lines. The cell lines MV-4-11 and MOLM14 harbor MLL translocations and express the MLL fusion proteins MLL-AF4 and MLL-AF9, respectively, as well as the wildtype protein from the second allele. […] K562 and KG1 were used as a control cell lines containing two MLL wildtype alleles in order to exclude compounds that display general cytotoxic effects.
(§2) MV-4-11 and MOLM14 were cultured in RPMI-1640 (Sigma Aldrich) supplemented with 10% fetal bovine serum (HyClone), 2 mM L-glutamine (Sigma Aldrich) and 50 μg/ml gentamycin (Gibco). K562 were propagated in RPMI-1640 (Sigma Aldrich) supplemented with 20% fetal bovine serum (HyClone), 2 mM L-glutamine (Sigma Aldrich) and 50 μg/ml gentamycin (Gibco). KG1 were cultured in Iscove's MDM (Gibco) supplemented with 20% fetal bovine serum (HyClone), 2 mM L-glutamine (Sigma Aldrich) and 50 μg/ml gentamycin (Gibco).
(§3) In order to assess the anti-proliferative effects, 1,500 MV-4-11, 300 MOLM14, 750 K562 or 1,300 KG1 cells were seeded in 200 μl media per well in 96-well round bottom, ultra-low attachment plates (Costar, catalogue number 7007). Cell seeding numbers were chosen based on growth curves to ensure linear growth throughout the experiment. Test compounds were added at different concentrations and the DMSO content was normalized to 0.3%. Cells were incubated for 8 d at 37° C. and 5% CO2. Spheroid like growth was monitored in real-time by live-cell imaging (IncuCyteZOOM, Essenbio, 4× objective) acquiring one image every four hours for 8 d. Confluence (%) as a measure of spheroid size was determined using an integrated analysis tool.
(§4) In order to determine the cumulative effect of the test compounds over time, the area under the curve (AUC) in a plot of confluence against time was calculated. Confluence at the beginning of the experiment (t=0) was used as baseline for the AUC calculation.
(§5) Absolute IC50 values were calculated according to the following procedure: % Control=(AUC sample/AUC control)*100 AUC control=mean AUC of control values (cells without compound/DMSO as vehicle control)
(§6) A non-linear curve fit was applied using the least squares (ordinary) fit method to the plot of % control versus compound concentration. Based on this, the absolute IC50 value (half maximal inhibitory concentration of the test compound causing an anti-proliferative effect of 50% relative to the vehicle control) was calculated.

MOLM14 = experiment: Proliferation assay (spheroid assay) MOLM14; type: cell-based, human
Method: as §1, §2, §3, §4, §5, §6

menin = biological target: T1, menin (Homo sapiens, UniProt O00255, T541A); experiment: Menin/MLL fluorescence polarization (FP) assay; type: binding
T1 sequence (O00255 with tags, fused parts or gaps T541A): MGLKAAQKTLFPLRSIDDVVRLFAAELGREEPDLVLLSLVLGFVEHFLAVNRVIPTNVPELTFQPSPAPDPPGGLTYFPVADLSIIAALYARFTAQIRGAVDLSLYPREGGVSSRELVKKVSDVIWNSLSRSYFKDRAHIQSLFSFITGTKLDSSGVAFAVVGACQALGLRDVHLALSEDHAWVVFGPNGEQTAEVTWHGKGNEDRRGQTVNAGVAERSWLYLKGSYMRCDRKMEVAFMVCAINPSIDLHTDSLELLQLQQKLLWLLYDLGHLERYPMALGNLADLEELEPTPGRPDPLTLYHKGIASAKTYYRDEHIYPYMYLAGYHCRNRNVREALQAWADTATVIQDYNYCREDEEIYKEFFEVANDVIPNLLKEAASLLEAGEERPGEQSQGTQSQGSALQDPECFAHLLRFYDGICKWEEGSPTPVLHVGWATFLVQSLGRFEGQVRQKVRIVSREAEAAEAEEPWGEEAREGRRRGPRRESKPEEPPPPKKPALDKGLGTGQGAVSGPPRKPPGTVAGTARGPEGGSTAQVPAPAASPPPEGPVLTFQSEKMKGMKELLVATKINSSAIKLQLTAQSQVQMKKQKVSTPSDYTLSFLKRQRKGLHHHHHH
Method: 1) Menin/MLL Fluorescence Polarization Assay
To a non-surface binding, black 384-well microtiter plate was added 50 nL 160× test compound in DMSO and 4 μL 2× menin in assay buffer (40 mM Tris·HCl, pH 7.5, 50 mM NaCl, 1 mM DTT and 0.001% Tween 20). After incubation of test compound and menin for 10 min at ambient temperature, 4 μL 2×FITC-MBM1 peptide (FITC-β-alanine-SARWRFPARPGT-NH2 (SEQ ID NO: 2)) in assay buffer was added, the microtiter plate centrifuged at 1000 rpm for 1 min and the assay mixtures incubated for 15 min at ambient temperature. The relative amount of menin·FITC-MBM1 complex present in an assay mixture is determined by measuring the fluorescence polarization (FP) of the FITC label with a BMG Pherastar plate reader (ex. 485 nm/em. 520 nm) at ambient temperature. The final concentrations of reagents in the binding assay are 100 nM menin, 5 nM FITC-MBM1 peptide and 0.625% DMSO in assay buffer. Dose-response titrations of test compounds are conducted using an 11 point, three-fold serial dilution scheme, starting at 31 μM.
Compound potencies were determined by first calculating % inhibition at each compound concentration according to equation 1: % inhibition=((HC−LC)−(FP^compound−LC))/(HC−LC))*100 (Eqn 1)
Where LC and HC are the FP values of the assay in the presence or absence of a saturating concentration of a compound that competes with FITC-MBM1 for binding to menin, and FP^compound is the measured FP value in the presence of the test compound. HC and LC FP values represent an average of at least 16 replicates per plate. […] 2) Proliferation Assay

MV-4-11 = experiment: Proliferation assay (spheroid assay) MV-4-11; type: cell-based, human
Method: as §1, §2, §3, §4, §5, §6

KG1 = experiment: Proliferation assay (spheroid assay) KG1, control cell line; type: cell-based; conditions: Homo sapiens, KG-1; KG1 control cell line; averaged values; read-out: Spheroid assay KG1 (IC50 (μM))
Method: as §1, §2, §3, §4, §5, §6

[1] = K562 control cell line, averaged values, read-out: Spheroid assay K562 (IC50 (μM))
[2] = Homo sapiens, MOLM-14, MOLM14, averaged values, read-out: Spheroid assay MOLM14 (IC50 (μM))
[3] = averaged values over all measurements, read-out: Menin FP assay (IC50 (μM))
[4] = Homo sapiens, MV4-11, MV-4-11, averaged values, read-out: Spheroid assay MV-4-11 (IC50 (μM))
[5] = 192 h, K562 (MLL wildtype control), 8 d, absolute IC50 from AUC of confluence, individual measurements (not averaged), read-out: (2) Spheroid assay K562 (IC50 (μM))
[6] = MOLM14 (MLL-AF9), 8 d, absolute IC50 from AUC of confluence, individual measurements (not averaged), read-out: (2) Spheroid assay MOLM14 (IC50 (μM))
[7] = 100 nM menin, 5 nM FITC-MBM1 peptide, individual measurements (not averaged), read-out: (1) Menin FP assay (IC50 (μM))
[8] = MV-4-11 (MLL-AF4), 8 d, absolute IC50 from AUC of confluence, individual measurements (not averaged), read-out: (2) Spheroid assay MV-4-11 (IC50 (μM))

SMILES | IC50 (K562; [1]) | IC50 (MOLM14; [2]) | IC50 (menin; [3]) | IC50 (MV-4-11; [4]) | IC50 (KG1) | IC50 (K562; [5]) | IC50 (MOLM14; Homo sapiens, MOLM-14, 192 h, MOLM14 (MLL-AF9), 8 d, absolute IC50 from AUC of confluence, individual measurements (not averaged), read-out: (2) Spheroid assay MOLM14 (IC50 (μM))) | IC50 (MOLM14; [6]) | IC50 (menin; [7]) | IC50 (MV-4-11; [8])
FC(F)(F)Cc1cc2c(N3CCCC4(CCN(Cc5ccccc5)C4)C3)ncnc2s1 (racemic) [Compound 18] | > 15 µM | 7.7 µM | 0.14 µM | 3.9 µM |  |  |  |  |  | 
FC(F)(F)Cc1cc2c(N3CC[C@@]4(CCN(Cc5ccccc5)C4)C3)ncnc2s1 (single isomer, unassigned) [Compound 20a] | > 15 µM | 5 µM | 0.076 µM | 0.96 µM |  |  |  |  |  | 
FC(F)(F)Cc1cc2c(N3CCC[C@]4(CCN(Cc5ccccc5)C4)C3)ncnc2s1 (single isomer, unassigned) [Compound 21a] | > 15 µM | 12.1 µM | 0.49 µM | 6.9 µM |  |  |  |  |  | 
FC(F)(F)Cc1cc2c(N3CCC[C@@]4(CCN(Cc5ccccc5)C4)C3)ncnc2s1 (single isomer, unassigned) [Compound 21b] | > 15 µM | 4.6 µM | 0.13 µM | 4.2 µM |  |  |  |  |  | 
CC(C1CCOCC1)N1CC2(CCN(c3ncnc4sc(CC(F)(F)F)cc34)C2)C1 (single isomer, unassigned) [Compound 155] |  | 1.2 µM |  | 0.7 µM | > 15 µM |  |  |  |  | 
CC(C)[C@@H](c1cnn(C)c1)N1CC[C@]2(CCN(c3ncnc4sc(CC(F)(F)F)cc34)C2)C1 (single isomer, unassigned) [Compound 189] |  |  |  | 0.92 µM | > 15 µM |  |  |  |  | 
Fc1ccc(CN2CC[C@]3(CCN(c4ncnc5sc(CC(F)(F)F)cc45)C3)C2)cc1 (single isomer, unassigned) [Compound 291] |  | 1.2 µM |  | 0.66 µM | > 15 µM |  |  |  |  | 
Fc1ccc(CN2CC[C@@]3(CCN(c4ncnc5sc(CC(F)(F)F)cc45)C3)C2)cc1 (single isomer, unassigned) [Compound 292] |  | 1.5 µM |  | 0.29 µM | > 15 µM |  |  |  |  | 
FC(F)(F)Cc1cc2c(N3CCC4(CN(Cc5ccccc5)C4)C3)ncnc2s1 [Compound 1] | > 15 µM | 4.6 µM | 0.056 µM | 3.7 µM |  |  |  |  |  | 
FC(F)(F)CCN1CC2(CCN(c3ncnc4sc(CC(F)(F)F)cc34)C2)C1 [Compound 2] | > 15 µM | 14.6 µM | 0.39 µM | 4.9 µM |  |  |  |  |  | 
FC(F)(F)Cc1cc2c(N3CCC4(CCN(Cc5ccccc5)C4)CC3)ncnc2s1 [Compound 3] | ~15 µM | 5.6 µM | 0.1 µM | 3.8 µM |  |  |  |  |  | 
FC(F)(F)Cc1cc2c(N3CCC4(CN(Cc5cn6ccccc6n5)C4)C3)ncnc2s1 [Compound 5] | > 15 µM | 30.6 µM | 0.67 µM | 6.4 µM |  |  |  |  |  | 
FC(F)(F)Cc1cc2c(N3CCC4(CN(Cc5ccc6nccn6c5)C4)C3)ncnc2s1 [Compound 6] | > 15 µM | 10.1 µM | 0.24 µM | 2.4 µM |  |  |  |  |  | 
FC(F)(F)Cc1cc2c(N3CCC4(CN(Cc5cnccn5)C4)C3)ncnc2s1 [Compound 12] | > 15 µM | > 15 µM | 0.63 µM | > 15 µM |  |  |  |  |  | 
CC(C)CN1CC2(CCN(c3ncnc4sc(CC(F)(F)F)cc34)C2)C1 [Compound 13] | > 15 µM | 4.2 µM | 0.042 µM | 0.73 µM |  |  |  |  |  | 
FC(F)(F)Cc1cc2c(N3CCC4(CN(Cc5ccnc(Cl)n5)C4)C3)ncnc2s1 [Compound 15] | > 15 µM | > 15 µM | 0.57 µM | 14 µM |  |  |  |  |  | 
FC(F)(F)Cc1cc2c(N3CC4(CCN(Cc5ccccc5)C4)C3)ncnc2s1 [Compound 16] |  |  |  |  |  | > 15 µM | 9.3 µM | 8.7 µM | 0.134 µM | 4.7 µM and > 15 µM
FC(F)(F)Cc1cc2c(N3CCC4(CN(CC5CC6(CCC6)C5)C4)C3)ncnc2s1 [Compound 22] | > 15 µM | 2 µM | 0.069 µM | 0.55 µM |  |  |  |  |  | 
O=C([C@@H]1CC2(CC2)CN1)N1CC2(CCN(c3ncnc4sc(CC(F)(F)F)cc34)C2)C1 [Compound 86] | > 15 µM | 11.3 µM | 0.092 µM | 2.6 µM |  |  |  |  |  | 
O=C([C@@H]1CC2(CC2)CN1)N1CC2(C1)CN(c1ncnc3sc(CC(F)(F)F)cc13)C2 [Compound 87] |  |  |  |  |  | > 15 µM |  | 8 µM and 2.8 µM and 4.6 µM | 0.048 µM | 4.1 µM and 0.63 µM and 0.58 µM and 0.68 µM and 0.52 µM
C[C@H]1CN[C@H](C(=O)N2CC3(C2)CN(c2ncnc4sc(CC(F)(F)F)cc24)C3)C1 [Compound 105] | > 15 µM | 3.4 µM |  | 0.67 µM |  |  |  |  |  | 
CC(C)CN1CC[C@@]2(CCN(c3ncnc4sc(CC(F)(F)F)cc34)C2)C1 [Compound 184] |  |  |  | 0.97 µM | > 15 µM |  |  |  |  | 
C[C@H](c1cnn(C)c1)N1CC2(CCN(c3ncnc4sc(CC(F)(F)F)cc34)C2)C1 [Compound 198] |  | 12.4 µM | 0.14 µM | 5.1 µM |  |  |  |  |  | 
C[C@@H](c1cnn(C)c1)N1CC2(CCN(c3ncnc4sc(CC(F)(F)F)cc34)C2)C1 [Compound 199] |  | > 15 µM | 0.41 µM | 12.9 µM |  |  |  |  |  | 
CC(C)[C@@H](C1CNC1)N1CC2(CCN(c3ncnc4sc(CC(F)(F)F)cc34)C2)C1 [Compound 200] |  | 10.3 µM | 0.11 µM | 3.4 µM |  |  |  |  |  | 
CC(CN1CC2(CCN(c3ncnc4sc(CC(F)(F)F)cc34)C2)C1)c1ccc(F)cc1 (centres unmarked) [Compound 317] |  |  |  | 0.77 µM | > 15 µM |  |  |  |  | 
